Measured values taken from PubChem BioAssay (NCI).
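Assay format: 96-well plates, 48-hour exposure. GI50: concentration for 50% inhibition of growth. TGI is the concentration that stops growth completely.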

Legend:
Experiment in all cases: DTP human tumour cell line panel, 48 h
A549 NSCLC = system: A549 NSCLC
ACHN renal = system: ACHN renal
CAKI-1 renal = system: CAKI-1 renal
COLO 205 colon = system: COLO 205 colon
DU-145 prostate = system: DU-145 prostate
EKVX NSCLC = system: EKVX NSCLC
HCT-116 colon = system: HCT-116 colon
HCT-15 colon = system: HCT-15 colon
HOP-92 NSCLC = system: HOP-92 NSCLC
HT29 colon = system: HT29 colon
IGROV1 ovarian = system: IGROV1 ovarian
KM12 colon = system: KM12 colon
M14 melanoma = system: M14 melanoma
MDA-MB-231 breast = system: MDA-MB-231 breast
MDA-MB-435 = system: MDA-MB-435
NCI-H226 lung = system: NCI-H226 lung
NCI-H23 lung = system: NCI-H23 lung
NCI/ADR-RES ovarian = system: NCI/ADR-RES ovarian
OVCAR-3 ovarian = system: OVCAR-3 ovarian
OVCAR-4 ovarian = system: OVCAR-4 ovarian
OVCAR-5 ovarian = system: OVCAR-5 ovarian
OVCAR-8 ovarian = system: OVCAR-8 ovarian
PC-3 prostate = system: PC-3 prostate
RXF 393 renal = system: RXF 393 renal
SF-268 CNS = system: SF-268 CNS
SF-295 CNS = system: SF-295 CNS
SF-539 CNS = system: SF-539 CNS
SK-MEL-28 melanoma = system: SK-MEL-28 melanoma
SK-MEL-5 melanoma = system: SK-MEL-5 melanoma
SN12C renal = system: SN12C renal
SNB-19 CNS = system: SNB-19 CNS
SNB-75 CNS = system: SNB-75 CNS
SW-620 colon = system: SW-620 colon
TK-10 renal = system: TK-10 renal
U251 CNS = system: U251 CNS
UO-31 renal = system: UO-31 renal
786-0 renal = system: 786-0 renal
A498 renal = system: A498 renal
BT-549 breast = system: BT-549 breast
CCRF-CEM leukemia = system: CCRF-CEM leukemia
HCC-2998 colon = system: HCC-2998 colon
HL-60(TB) leukemia = system: HL-60(TB) leukemia
HOP-62 NSCLC = system: HOP-62 NSCLC
K-562 leukemia = system: K-562 leukemia
LOX IMVI melanoma = system: LOX IMVI melanoma
MALME-3M melanoma = system: MALME-3M melanoma
MCF7 breast = system: MCF7 breast
MOLT-4 leukemia = system: MOLT-4 leukemia
NCI-H460 lung = system: NCI-H460 lung
NCI-H522 lung = system: NCI-H522 lung
RPMI-8226 leukemia = system: RPMI-8226 leukemia
SK-MEL-2 melanoma = system: SK-MEL-2 melanoma
SK-OV-3 ovarian = system: SK-OV-3 ovarian
SR leukemia = system: SR leukemia
UACC-257 melanoma = system: UACC-257 melanoma
UACC-62 melanoma = system: UACC-62 melanoma

CCC1(c2ccc(N3C(=O)c4ccccc4C3=O)cc2)CCC(=O)NC1=O (configuration not stated)
TGI (A549 NSCLC): > 10 µM | TGI (ACHN renal): > 10 µM | TGI (CAKI-1 renal): > 10 µM | TGI (COLO 205 colon): > 10 µM | TGI (DU-145 prostate): > 10 µM | TGI (EKVX NSCLC): > 10 µM | TGI (HCT-116 colon): > 10 µM | TGI (HCT-15 colon): > 10 µM | TGI (HOP-92 NSCLC): > 10 µM | TGI (HT29 colon): > 10 µM | TGI (IGROV1 ovarian): > 10 µM | TGI (KM12 colon): > 10 µM | TGI (M14 melanoma): > 10 µM | TGI (MDA-MB-231 breast): > 10 µM | TGI (MDA-MB-435): > 10 µM | TGI (NCI-H226 lung): > 10 µM | TGI (NCI-H23 lung): > 10 µM | TGI (NCI/ADR-RES ovarian): > 10 µM | TGI (OVCAR-3 ovarian): > 10 µM | TGI (OVCAR-4 ovarian): > 10 µM | TGI (OVCAR-5 ovarian): > 10 µM | TGI (OVCAR-8 ovarian): > 10 µM | TGI (PC-3 prostate): > 10 µM | TGI (RXF 393 renal): > 10 µM | TGI (SF-268 CNS): > 10 µM | TGI (SF-295 CNS): > 10 µM | TGI (SF-539 CNS): > 10 µM | TGI (SK-MEL-28 melanoma): > 10 µM | TGI (SK-MEL-5 melanoma): > 10 µM | TGI (SN12C renal): > 10 µM | TGI (SNB-19 CNS): > 10 µM | TGI (SNB-75 CNS): > 10 µM | TGI (SW-620 colon): > 10 µM | TGI (TK-10 renal): > 10 µM | TGI (U251 CNS): > 10 µM | TGI (UO-31 renal): > 10 µM

Cn1ccc(=O)c2c(O)c3ccccc3c(O)c21
GI50 (786-0 renal): > 100 µM | TGI (786-0 renal): > 100 µM | GI50 (A498 renal): 20.2 µM | TGI (A498 renal): > 100 µM | GI50 (A549 NSCLC): > 93.1 µM | TGI (A549 NSCLC): > 100 µM | GI50 (ACHN renal): 35.3 µM | TGI (ACHN renal): > 100 µM | GI50 (BT-549 breast): > 100 µM | TGI (BT-549 breast): > 100 µM | GI50 (CAKI-1 renal): 57 µM | TGI (CAKI-1 renal): > 100 µM | TGI (CCRF-CEM leukemia): > 100 µM | GI50 (COLO 205 colon): 56.9 µM | TGI (COLO 205 colon): > 100 µM | GI50 (DU-145 prostate): > 100 µM | TGI (DU-145 prostate): > 100 µM | GI50 (EKVX NSCLC): > 100 µM | TGI (EKVX NSCLC): > 100 µM | GI50 (HCC-2998 colon): 20.3 µM | TGI (HCC-2998 colon): > 100 µM | GI50 (HCT-116 colon): 42.2 µM | TGI (HCT-116 colon): > 100 µM | GI50 (HCT-15 colon): > 66.1 µM | TGI (HCT-15 colon): > 100 µM | GI50 (HL-60(TB) leukemia): > 100 µM | TGI (HL-60(TB) leukemia): > 100 µM | GI50 (HOP-62 NSCLC): 64.5 µM | TGI (HOP-62 NSCLC): > 100 µM | GI50 (HOP-92 NSCLC): > 100 µM | TGI (HOP-92 NSCLC): > 100 µM | GI50 (HT29 colon): 99.9 µM | TGI (HT29 colon): > 100 µM | GI50 (IGROV1 ovarian): > 100 µM | TGI (IGROV1 ovarian): > 100 µM | GI50 (K-562 leukemia): > 100 µM | TGI (K-562 leukemia): > 100 µM | GI50 (KM12 colon): > 70.1 µM | TGI (KM12 colon): > 100 µM | GI50 (LOX IMVI melanoma): 52.7 µM | TGI (LOX IMVI melanoma): > 100 µM | GI50 (M14 melanoma): 97.5 µM | TGI (M14 melanoma): > 100 µM | GI50 (MALME-3M melanoma): > 100 µM | TGI (MALME-3M melanoma): > 100 µM | GI50 (MCF7 breast): > 100 µM | TGI (MCF7 breast): > 100 µM | GI50 (MDA-MB-231 breast): 99.1 µM | TGI (MDA-MB-231 breast): > 100 µM | GI50 (MDA-MB-435): > 100 µM | TGI (MDA-MB-435): > 100 µM | GI50 (MOLT-4 leukemia): 80.9 µM | TGI (MOLT-4 leukemia): > 100 µM | GI50 (NCI-H226 lung): > 44.6 µM | TGI (NCI-H226 lung): > 100 µM | GI50 (NCI-H23 lung): > 100 µM | TGI (NCI-H23 lung): > 100 µM | GI50 (NCI-H460 lung): > 69 µM | TGI (NCI-H460 lung): > 100 µM | GI50 (NCI-H522 lung): > 94 µM | TGI (NCI-H522 lung): > 100 µM | GI50 (NCI/ADR-RES ovarian): > 100 µM | TGI (NCI/ADR-RES ovarian): > 100 µM | GI50 (OVCAR-3 ovarian): > 100 µM | TGI (OVCAR-3 ovarian): > 100 µM | GI50 (OVCAR-4 ovarian): > 100 µM | TGI (OVCAR-4 ovarian): > 100 µM | GI50 (OVCAR-5 ovarian): > 100 µM | TGI (OVCAR-5 ovarian): > 100 µM | GI50 (OVCAR-8 ovarian): > 58.6 µM | TGI (OVCAR-8 ovarian): > 100 µM | GI50 (PC-3 prostate): > 26.6 µM | TGI (PC-3 prostate): > 100 µM | GI50 (RPMI-8226 leukemia): 34.5 µM | TGI (RPMI-8226 leukemia): > 100 µM | GI50 (RXF 393 renal): > 100 µM | TGI (RXF 393 renal): > 100 µM | GI50 (SF-268 CNS): > 100 µM | TGI (SF-268 CNS): > 100 µM | GI50 (SF-295 CNS): 64.3 µM | TGI (SF-295 CNS): > 100 µM | GI50 (SF-539 CNS): > 82.3 µM | TGI (SF-539 CNS): > 100 µM | GI50 (SK-MEL-2 melanoma): > 100 µM | TGI (SK-MEL-2 melanoma): > 100 µM | GI50 (SK-MEL-28 melanoma): > 100 µM | TGI (SK-MEL-28 melanoma): > 100 µM | GI50 (SK-MEL-5 melanoma): 18.3 µM | TGI (SK-MEL-5 melanoma): > 52.4 µM | GI50 (SK-OV-3 ovarian): > 94.2 µM | TGI (SK-OV-3 ovarian): > 100 µM | GI50 (SN12C renal): 78.1 µM | TGI (SN12C renal): > 100 µM | GI50 (SNB-19 CNS): > 40.2 µM | TGI (SNB-19 CNS): > 100 µM | GI50 (SNB-75 CNS): > 100 µM | TGI (SNB-75 CNS): > 100 µM | GI50 (SR leukemia): 44.5 µM | TGI (SR leukemia): > 100 µM | GI50 (SW-620 colon): 59.9 µM | TGI (SW-620 colon): > 100 µM | GI50 (TK-10 renal): > 94.9 µM | TGI (TK-10 renal): > 100 µM | GI50 (U251 CNS): > 100 µM | TGI (U251 CNS): > 100 µM | GI50 (UACC-257 melanoma): > 100 µM | TGI (UACC-257 melanoma): > 100 µM | GI50 (UACC-62 melanoma): > 88.6 µM | TGI (UACC-62 melanoma): > 100 µM | GI50 (UO-31 renal): > 100 µM | TGI (UO-31 renal): > 100 µM
